Common to all, as to format: functional
The test system of assay [1] is Microsporum audouinii. In words: Antifungal activity against Microsporum audouinii.
Assay [2] deals with Candida albicans. The assay can be described thus: Antifungal activity against Candida albicans.
Assay [3] concerns Aspergillus fumigatus. The assay can be described thus: Antifungal activity against Aspergillus fumigatus assessed as reduction in fungal growth.
Assay [4] relates to Aspergillus niger. The assay can be described thus: Antifungal activity against Aspergillus niger MTCC 282 assessed as reduction in microbial growth after 24 hrs by broth micro-dilution method.
Assay [5] has as its system Aspergillus niger. The assay can be described thus: Antifungal activity against Aspergillus niger assessed as diameter of zone inhibition.
In assay [6] the test system is Candida albicans. The assay can be described thus: Antifungal activity against Candida albicans assessed as diameter of zone inhibition.
The test system of assay [7] is Candida albicans. The assay can be described thus: Antifungal activity against azole-resistant Candida albicans ATCC 18804 assessed as reduction in fungal growth by XTT assay.
Assay [8] relates to Geotrichum candidum. In words: Antifungal activity against Geotrichum candidum.
For assay [9], the system named is Syncephalastrum racemosum. The assay can be described thus: Antifungal activity against Syncephalastrum racemosum.
For assay [10], the system named is Candida albicans. In words: Antifungal activity against Candida albicans SC5314 assessed as reduction in fungal growth incubated for 72 hrs by broth microdilution method. On the technique in general: Dilution methods test growth across graded concentrations, often in twofold steps.
The subject of assay [11] is Candida albicans. The assay can be described thus: Antifungal activity against Candida albicans ATCC 10231 assessed as inhibition of mycelial growth relative to control.
In assay [12] the test system is Botryosphaeria dothidea. In words: Antifungal activity against Botryosphaeria dothidea assessed as reduction in fungal growth at 50 ug/ml relative to control.
Assay [13] concerns Botrytis cinerea. In words: Antifungal activity against Botrytis cinerea assessed as reduction in fungal growth at 50 ug/ml relative to control.
Assay [14] deals with Phomopsis. In words: Antifungal activity against Phomopsis assessed as reduction in fungal growth at 50 ug/ml relative to control.
For assay [15], the system named is Aspergillus fumigatus. The assay can be described thus: Antifungal activity against Aspergillus fumigatus assessed as reduction in fungal growth incubated for 72 hrs by agar well diffusion method. (In general: Agar diffusion results depend on both activity and mobility in agar.)
For assay [16], the system named is Nakaseomyces glabratus. In words: Antifungal activity against Candida glabrata MTCC 3019 assessed as inhibition of fungal growth incubated for 24 hrs.
The subject of assay [17] is Candida albicans. The assay can be described thus: Antifungal activity against Candida albicans MTCC 3018 assessed as inhibition of fungal growth incubated for 24 hrs.
For assay [18], the system named is Candida albicans. The assay can be described thus: Antifungal activity against Candida albicans MTCC 7315 assessed as inhibition of fungal growth incubated for 24 hrs.
Assay [19] has as its system Candida albicans. In words: Antifungal activity against Candida albicans MTCC 227 assessed as inhibition of fungal growth incubated for 24 hrs.
Assay [20] relates to Candida parapsilosis. The assay can be described thus: Antifungal activity against Candida parapsilosis MTCC 1744 assessed as inhibition of fungal growth incubated for 24 hrs. Conditions: Lodderomyces parapsilosis.
Assay [21] deals with Candida albicans. In words: Antifungal activity against Candida albicans MTCC 3017 assessed as inhibition of fungal growth incubated for 24 hrs.
For assay [22], the system named is Candida albicans. The assay can be described thus: Antifungal activity against Candida albicans MTCC 4748 assessed as inhibition of fungal growth incubated for 24 hrs.
Assay [23] relates to Candida albicans. In words: Antifungal activity against Candida albicans MTCC 1637 assessed as inhibition of fungal growth incubated for 24 hrs.
Assay [24] has as its system Pichia kudriavzevii. In words: Antifungal activity against Pichia kudriavzevii MTCC 3020 assessed as inhibition of fungal growth incubated for 24 hrs.
Assay [25] concerns Candida albicans. In words: Antifungal activity against Candida albicans ATCC 90028 assessed as growth inhibition incubated for 36 hrs by resazurin dye based assay.
Assay [26] relates to Candida albicans. The assay can be described thus: Antifungal activity against azole-resistant Candida albicans ATCC 10231 assessed as fungal growth inhibition incubated for 24 hrs by CLSI protocol based broth microdilution method.
Assay [27] relates to Nakaseomyces glabratus. The assay can be described thus: Antifungal activity against Candida glabrata ATCC 90030 assessed as reduction in microbial growth.
The test system of assay [28] is Candida tropicalis. In words: Antifungal activity against Candida tropicalis ATCC 750 assessed as reduction in microbial growth.
Assay [29] concerns Candida albicans. In words: Antifungal activity against Candida albicans ATCC 90028 assessed as reduction in microbial growth.
The test system of assay [30] is Candida albicans. In words: Antifungal activity against Candida albicans assessed as zone of inhibition by disc diffusion method.
Assay [31] relates to Aspergillus flavus. In words: Antifungal activity against Aspergillus flavus assessed as zone of inhibition by disc diffusion method.
For assay [32], the system named is Aspergillus niger. The assay can be described thus: Antifungal activity against Aspergillus niger assessed as zone of inhibition.
For assay [33], the system named is Candida albicans. In words: Antifungal activity against Candida albicans assessed as zone of inhibition.

Structures are written as SMILES. Values after ≈ are worked out from the molar mass of the structure shown. Some results are limits rather than exact numbers.

For orientation: MIC means the lowest concentration that inhibits growth of the organism. What is called inhibition is the share of the control response that was lost under treatment.

In the case of `COc1ccc(C2CC(=Nn3c(=O)cc[nH]c3=O)CC(c3ccc(OC)cc3)S2)cc1` (centres undefined), the minimal inhibitory concentration (MIC) is 4 µg/mL (≈ 9.14 µM) in assay [1] and 0.25 µg/mL (≈ 0.571 µM) in assay [2].
For the molecule `O=C1N/C(=N/c2nn(-c3ccccc3)nc2C(=O)Nc2cnccn2)S/C1=C\c1ccccc1`, the MIC in [3] was under 214 µg/mL.
As for `Clc1cnc(C2=Nc3ccccc3SC(c3cccs3)C2)cn1` (centres undefined), the MIC in assay [4] turned out to be 44 µM.
`Cc1cccc(-c2nc3ccccc3nc2N2CCN(C)CC2)c1`: the “inhibition zone (IZ)” value in assay [5] was determined as 16 mm; in assay [6], 14 mm.
As for `COc1ccc(/N=N/c2sc(-n3[nH]c(=O)ccc3=O)nc2C)cc1`, in assay [7], the MIC was determined as 0.2 µg/mL (≈ 0.582 µM).
As to `Cc1nn(-c2ccccc2)c2nc3sc(C(=O)OCC(=O)c4ccccc4)c(N)c3nc12`, the MIC came out at 4 µg/mL (≈ 9.02 µM) in assay [8], 5 µg/mL (≈ 11.3 µM) in assay [9] and 5 µg/mL (≈ 11.3 µM) in assay [2].
As for `Clc1ccc(C2CC(c3cnc(Cl)cn3)=Nc3ccccc3S2)c(Cl)c1` (centres undefined), the minimum inhibitory concentration (MIC) in assay [4] is 19 µM.
For `CCOC(=O)c1sc2nc3c(nc2c1N)c(C)nn3-c1ccccc1`, the MIC in assay [8], in assay [9] and in assay [2] was 5 µg/mL (≈ 14.1 µM) each time.
On to `O=C(NNc1nc2ccccc2nc1/C=C/c1ccccc1O)Nc1cccc(Cl)c1`, for which, in assay [10], the MIC turned out to be 0.125 µM (≈ 0.054 µg/mL).
`O=C(Nc1ccccc1)c1nnn2c1[nH]c(=O)c1ccccc12`: the “inhibition (INH)” value in [11] is 40%.
Take `Cc1nc(Oc2ccc(C(=O)Nc3ccc(OC(F)(F)F)c(Cl)c3)cc2)cc(C(F)(F)F)n1`: the inhibition at 50 µg/mL turned out to be 98.5% in assay [12], 98.5% in assay [13] and 92% in assay [14].
For `Cc1n[nH]c2c(C#N)c(=O)n(-c3ccc(N)cc3)nc12`, the MIC in [15] is 1.95 µg/mL (≈ 7.32 µM).
As for `O=[N+]([O-])c1ccc(-c2nnc3c4ccc(C(F)(F)F)nc4nc(-c4ccco4)n23)cc1`, the MIC in assay [16], in [17], in assay [18], in assay [19], in assay [20] and in assay [21] was 3.9 µg/mL (≈ 9.15 µM) throughout. The MIC in assay [22], in assay [23] and in [24] was 3.9 µg/mL (≈ 9.15 µM) throughout.
Consider `O=C(Nc1ccc(F)c(F)c1)N1CCn2c(nnc2C(F)(F)F)C1`, for which the MIC in assay [25] was found to be 6.25 µg/mL (≈ 18 µM).
As to `O=c1ccc(=O)n(-c2nc(-c3cc4ccccc4oc3=O)cs2)[nH]1`, in assay [26], the MIC was 5.6 µg/mL (≈ 16.5 µM).
Turning to `C[C@]12CC[C@H](O)CC1=CC[C@@H]1[C@@H]2CC[C@]2(C)C3=C(C[C@@H]12)C(c1ccccc1)N1C=CSC1=N3` (some centres undefined), the MIC is over 1000 µg/mL in assay [27], over 1000 µg/mL in assay [28] and 750 µg/mL in [29].
`CC(=O)N/C(=C\c1ccc(Cl)cc1)c1nc2c(=O)[nH]c(=O)n(Cc3ccccc3Cl)c2[nH]1`: the “inhibition zone (IZ)” value is on record as 12 mm in [30] and 10 mm in [31].
Take `FC(F)(F)c1nnc2n1CCN(C(=S)Nc1ccc(Br)cc1)C2`: the MIC in [25] was found to be 6.25 µg/mL (≈ 15.4 µM).
As to `CC(=O)N(C(C)=O)N1C(=O)CC(=O)N(c2nnc(-c3cc([N+](=O)[O-])cc([N+](=O)[O-])c3)s2)C1=S`, the “inhibition zone (IZ)” value in [32] was found to be 21 mm; in [33], 23 mm.
On to `Cc1nc2c(sc3nc4c(nc32)c(C)nn4-c2ccccc2)c(=O)o1`, for which the MIC in assay [8] was 4 µg/mL (≈ 11.4 µM); in [9], 3 µg/mL (≈ 8.59 µM); in assay [2], 3 µg/mL (≈ 8.59 µM).
On to `C=CCNN1CCN(c2nc3ccccc3nc2-c2cccc(C)c2)CC1`, for which the “inhibition zone (IZ)” value in assay [5] is 14 mm; in assay [6] it was 13 mm.

These data come from ChEMBL document CHEMBL6103565, “Current strategies in design and synthesis of antifungals hybrid and chimeric diazine derivatives” (Bioorg Med Chem, 2025).
